The Tmax is the time from dosing to the highest level. In general, AUC(0-inf) refers to the area under the concentration-time curve extrapolated to infinity. Low values mean less exposure, high ones more exposure. What is called AUC(0-t) is the area under the concentration-time curve up to a stated or last time point. High values mean more exposure, low ones less exposure. As a reminder, the Cmax is the peak of the concentration-time curve. One may read the IC25 as the concentration at which the effect reaches the 25% level.

Values joined by “and” are separate entries in the source; they are usually repeats but may differ in a detail not shown here. Equal entries are not always repeated. “Also recorded” adds a separate entry of the source. Structures can show the parent of a compound that is named as a salt. Where two headings read alike, the source gives them in different places.

Consider three compounds from publication PMC5130197 (PLoS ONE, 2016).

For data set [1], the system named is EBOV/Kik (Ebola virus Kikwit variant). Conditions: cited from earlier work.
Data set [2] has as its system Vero E6, Hep G2, HeLa, Huh 7 cells.
The subject of data set [3] is EBOV/Kik (Ebola virus Kikwit variant). In kind it is cell-based.
Data set [4] deals with EBOV/Mak (Ebola virus Makona variant). In kind it is cell-based.
Data set [5] has as its system EBOV-eGFP. It counts as cell-based, Ebola virus.
For data set [6], the system named is human MDMs.
Data set [7] is described as follows: in vivo. Conditions: Hartley, guinea pig, po, 60 mg/kg; for AUC(0-inf): AUCinf (h·ng/ml); for AUC(0-t): AUClast (h·ng/ml); for Cmax: Cmax (ng/ml).
The conditions of data set [8]: both, Hartley, guinea pig, in vivo, po, 60 mg/kg.
Data set [9] relates to Ebola virus disease. The following applies: human, in vivo; cited from earlier work.
For data set [10], the system named is EBOV-eGFP. The following applies: cited from earlier work.

In the case of `Cc1cn([C@H]2C[C@H](N=[N+]=[N-])[C@@H](CO)O2)c(=O)[nH]c1=O` [Zidovudine], the IC50 in data set [1] is more than 320 µM. In data set [2], the cytotoxicity result is “minimal cytotoxicity”. Also, the “antiviral activity against EBOV/Kik” value in data set [3] was “no detectable antiviral activity”. Moreover, in data set [3] (read-out: IC50), the IC50 is more than 320 µM. Besides, in data set [4], the “antiviral activity against EBOV/Mak” value is “did not show antiviral activity” and the “antiviral activity against EBOV/Mak infection in MDMs” value was “did not demonstrate any antiviral activity”. Also, the “anti-EBOV activity against EBOV-eGFP” value in data set [5] is “None of these compounds showed any anti-EBOV activity”.
Consider `CN(C)CCOc1ccc(/C(=C(/CCCl)c2ccccc2)c2ccccc2)cc1` [Toremifene, Toremifene citrate], for which the IC50 in [1] is ~25 µM and 18.3 µM; in data set [3] (read-out: IC50s (range over cell lines)), 2.2 to 9.9 µM; in data set [4] (read-out: IC50), 1.2 ± 0.1 µM; in data set [4] (read-out: IC50s (range) in MDMs), 2.1 to 4.5 µM. Besides, in data set [6], the “doses at which cytotoxicity increased” value was not below 10 µM. The “antiviral activity against EBOV/Mak” value in [4] is given as “strong antiviral activity”.
Regarding `Nc1ccn([C@@H]2CS[C@H](CO)O2)c(=O)n1` [Lamivudine], the IC50 in [1] is more than 320 µM. Further, in data set [7] (both, time to reach peak plasma concentrations), the Tmax is not above 1 h. Moreover, in data set [7] (female), the AUC(0-inf) was 12600 ng·h/mL, the AUC(0-t) turned out to be 14600 ng·h/mL and the Cmax was 4110 ng/mL. Moreover, in data set [7] (female, Tmax (hr)), the time of peak concentration (Tmax) was determined as 1 h. In data set [7] (male), the AUC(0-inf) was found to be 16800 ng·h/mL, the area under the curve AUC(0-t) is 15500 ng·h/mL and the Cmax stood at 4560 ng/mL. The Tmax in [7] (male, Tmax (hr)) was 1 h. Besides, in data set [8], the “AUCinf higher in male compared with female guinea pigs” value is “about 34%” and the “time of small second peak of plasma concentration” value was 4 to 6 h. Further, in data set [2], the cytotoxicity entry was “minimal cytotoxicity”. Further, the patients successfully treated in data set [9] was 13 out of 15. For the same compound, in [3], the “antiviral activity against EBOV/Kik” value is reported as “no detectable antiviral activity”. For the same compound, in data set [3] (read-out: IC50), the IC50 is more than 320 µM. In [4], the anti-EBOV activity result is recorded as “No significant anti-EBOV activity”, the “antiviral activity against EBOV/Mak” value is “did not show antiviral activity; also recorded: did not demonstrate any antiviral activity”, the “antiviral activity against EBOV/Mak infection in MDMs” value is listed as “did not demonstrate any antiviral activity” and the “antiviral activity with extended drug pre-treatment” value is “did not improve”. Moreover, the “viral inhibition (maximum achieved)” value in data set [4] (320 µM) is given as not above 30%. Further, the IC50 in data set [4] (read-out: IC50) is more than 320 µM. Moreover, the “anti-EBOV activity against EBOV-eGFP” value in data set [5] is “None of these compounds showed any anti-EBOV activity”. In addition, in [10], the concentration for an effect of 25% (IC25) was 43.13 µM and the “inhibition of viral replication (maximum)” value is on record as not above 45%.
